Test results as given in patent publication US20240270748A1 (Merck Patent GmbH, priority 2021, published 2024).

Tests used:
[1] = test system: SW620 Yap KO cells; assay: Viability assay in SW620 Yap KO (Yap independent) cells, CyQuant; assay type: cell-based
Procedure: (§1) Viability Assay in NCI-H226 (Yap-Dependent) and SW620 Yap KO (Yap Independent) Cells
(§2) The ability of YAP-TEAD inhibitors to inhibit tumor cell growth was evaluated using two different cell lines: NCI-H226, which is a YAP dependent cell line, and SW620 cells, where YAP and TAZ were knocked out using CRISPR to generate a YAP independent cell line.
(§3) For the assay, cells were treated in duplicates with the test compounds in a 10-point dose, 1:3 dilution steps, with the top concentration starting at 30 μM (final concentration in assay). After a 96 hour incubation at 37° C., 95% rH, and 5% CO2, a cell-permeant DNA-binding dye that stains only healthy cells (CyQUANT®, Promega) was added to the cells, allowing the quantification of cell viability.
(§4) Cell Media: The NCI-H226 cells were cultured in the following media: RPMI 1640, +10% FBS, +1× GlutaMAX, +10 mM HEPES, +0.5% Pen/Strep. The SW620-KO cells were cultured in the following media: DMEM/F-12, +10% FBS, +1× GlutaMAX, +10 mM HEPES, +0.5% Pen/Strep.
(§5) Reagents: The reagents used are listed below:
(§6) Cell culture: The cells were examined using an inverted microscope to check for health, cell density, etc. To dissociate adherent cells, the monolayer of cells was washed once with pre-warmed PBS. After removing the PBS, 3 ml pre-warmed Accutase was added to a F75 flask, dispersed evenly and the flask was allowed to sit in incubator for ˜4-5 minutes.
(§7) When a single cell suspension was obtained, 7 ml of prewarmed growth media was added and resuspended with the cells. The cell suspension was transferred to a sterile 15 ml conical centrifuge tube, and spun for 5 min at 300×g, RT. The supernatant was discarded and the pellet was resuspended in 10 ml of pre-warmed growth media.
(§8) The total cell count was determined, and 20 μl of the desired cell number was added to each well of a 384 well plate using a Multidrop Combi. The plates were then incubated for 24 hours at 37° C., 95% rH, and 5% CO2.
(§9) Compound treatment: 24 hours after seeding, the cells were treated with compounds.
(§10) A 1:333 dilution of compounds, diluted in DMSO, was made to get a final concentration of 0.3% DMSO per well. To transfer the compounds to the assay plate, […] was shot from Labcyte low dead volume plates to the cell plates containing 20 μl media/well with the ECHO 555 liquid handling system.
(§11) After treatment, the cells were fed with 20 μl fresh pre-warmed assay media using a Multidrop combi.
(§12) The assay plates were then incubated for 96 h at 37° C., 95% rH, and 5% CO2.
(§13) 96 h after treatment 30 μl of CyQuant® reagent was added to the assay plates using a Multidrop combi in the dark. The plates were then incubated for 1 hour at 37° C., 95% rH and 5% CO2. Thereafter, the assay plates were removed from the incubator and allowed to equilibrate to RT for 30 min in the dark without lid. Finally, they were measured using an EnVision microplate reader with a FITC bottom read program.

[2] = test system: YAP-TEAD interaction; assay: SK-HEP-1 reporter assay (8xTEAD responsive elements driving NanoLuc luciferase); assay type: cell-based
How it was run: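 SK-HEP-1 cells stably carrying 8×TEAD-driven NanoLuc treated in duplicate, 10-point dose from 30 μM final, 0.3% DMSO, 24 h at 37° C. Luminescence after NanoGlo lysis/substrate addition; IC50 calculated from dose response.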

[3] = test system: NCI-H226 cells; assay: Viability assay in NCI-H226 (Yap-dependent) cells, CyQuant; assay type: cell-based, human; conditions: class symbols
Procedure: as §1, §2, §3, §4, §5, §6, §7, §8, §9, §10, §11, §12, §13

[4] = Homo sapiens, SW-620, 96 h, n.d. = value not detectable below threshold given in parentheses, ND = not determinable within the entire range
[5] = Homo sapiens, SK-HEP1, SK-HEP-1 reporter assay, class symbols
[6] = Homo sapiens, SW-620, 96 h, class symbols
[7] = Homo sapiens, SW-620, 96 h, n.d. = value not detectable below threshold given in parentheses
[8] = Homo sapiens, SK-HEP1, SK-HEP-1 reporter assay, n.d. = value not detectable below threshold given in parentheses

Structure (SMILES)	IC50 [2, 5] [nM]	IC50 ([3]; Homo sapiens, NCI-H226, 96 h) [nM]	IC50 [1, 7] [nM]	IC50 [2, 8] [nM]	further results
Cn1cc2c3cc(C(=O)NC(CO)c4ccccn4)ccc3n(-c3ccc(C(F)(F)F)nc3)c2n1 (single isomer, unassigned) [Example C123]	100 to 10000				IC50 [1, 4]: > 30000 nM; IC50 ([3]; 96 h): 100 to 1000 nM
Cn1cc2c3cc(C(=O)NC(CO)c4ccccn4)ccc3n(-c3ccc(C(F)(F)F)nc3)c2n1 (single isomer, unassigned) [Example C124]					IC50 ([1]; 96 h, n.d. = value not detectable below threshold given in parentheses, ND = not determinable within the entire range): > 30000 nM; IC50 ([2]; Homo sapiens, SK-HEP1, SK-HEP-1 reporter assay, n.d. = value not detectable below threshold given in parentheses, ND = not determinable within the entire range): > 30000 nM; IC50 ([3]; 96 h): 1000 to 10000 nM
Cn1nc2c3cc(C(=O)N=[S@@](=O)(CCO)Cc4ccccn4)ccc3n(-c3ccc(C(F)(F)F)cc3)c2n1 (single isomer, unassigned) [Example C157]	10 to 100	100 to 1000			IC50 [1, 6]: 1000 to 10000 nM
Cn1nc2c3cc(C(=O)N=[S@](=O)(CCO)Cc4ccccn4)ccc3n(-c3ccc(C(F)(F)F)cc3)c2n1 (single isomer, unassigned) [Example C161]	10 to 100	1 to 100			IC50 [1, 4]: > 3000 nM
Cn1cc2c3cc(C(=O)N[C@@H](CCO)c4cncs4)ccc3n(-c3ccc(C(F)(F)F)cc3)c2n1 (single isomer, unassigned) [Example C162]	10 to 100	1 to 100			IC50 [1, 4]: > 30000 nM
Cn1nc2c3cc(C(=O)N=[S@](C)(=O)CCCO)ccc3n(-c3ccc(C(F)(F)F)cc3)c2n1 (single isomer, unassigned) [Example C172]	10 to 100	1 to 100	> 30000		
Cn1nc2c3cc(C(=O)N=[S@@](C)(=O)CCCO)ccc3n(-c3ccc(C(F)(F)F)cc3)c2n1 (single isomer, unassigned) [Example C173]	10 to 100	1 to 100	> 30000		
Cn1cc2c3cc(C(=O)N=[S@](=O)(CCO)Cc4ccccn4)ccc3n(-c3ccc(C(F)(F)F)cc3)c2n1 (single isomer, unassigned) [Example C175]		1 to 100	> 3000	> 9500	
Cn1cc2c3cc(C(=O)N=[S@@](=O)(CCO)Cc4ccccn4)ccc3n(-c3ccc(C(F)(F)F)cc3)c2n1 (single isomer, unassigned) [Example C177]		100 to 1000	> 3000	> 6500	
Cn1nc2c3cc(C(=O)N[C@](C)(CO)c4ccccn4)ccc3n(-c3ccc(C(F)(F)F)cc3)c2n1 (single isomer, unassigned) [Example C187]	10 to 100	1 to 100			IC50 [1, 6]: 1000 to 10000 nM
Cn1nc2c3cc(C(=O)N[C@@](C)(CO)c4ccccn4)ccc3n(-c3ccc(C(F)(F)F)cc3)c2n1 (single isomer, unassigned) [Example C189]	10 to 100	1 to 100	> 30000		
Cn1nc2c3cc(C(=O)N=[S@@](C)(=O)CCO)ccc3n(-c3ccc(C(F)(F)F)cc3)c2n1 (single isomer, unassigned) [Example C191]	10 to 100	1 to 100	> 30000		
Cn1nc2c3cc(C(=O)N=S(C)(=O)CCO)ccc3n(-c3ccc(C(F)(F)F)cc3)c2n1 (single isomer, unassigned) [Example C192]	10 to 100	1 to 100	> 30000		
Cn1cc2c3cc(C(=O)N=[S@@](=O)(CCCO)Cc4cccnc4)ccc3n(-c3ccc(C(F)(F)F)cc3)c2n1 (single isomer, unassigned) [Example C199]		100 to 1000	> 3000	> 95	
Cn1nc2c3cc(C(=O)N=[S@@](=O)(CCCO)Cc4cccnc4)ccc3n(-c3ccc(C(F)(F)F)cc3)c2n1 (single isomer, unassigned) [Example C200]		100 to 1000	> 3000	> 9500	
Cn1cc2c3cc(C(=O)N=[S@](=O)(CCCO)Cc4cccnc4)ccc3n(-c3ccc(C(F)(F)F)cc3)c2n1 (single isomer, unassigned) [Example C201]		100 to 1000		> 300	IC50 [1, 6]: 1000 to 10000 nM
Cn1nc2c3cc(C(=O)N=[S@](=O)(CCCO)Cc4cccnc4)ccc3n(-c3ccc(C(F)(F)F)cc3)c2n1 (single isomer, unassigned) [Example C202]		100 to 1000	> 3000	> 300	
Cn1cc2c3cc(C(=O)N=[S@@](=O)(CCCO)Cc4ccccn4)ccc3n(-c3ccc(C(F)(F)F)cc3)c2n1 (single isomer, unassigned) [Example C210]		100 to 1000	> 3000	> 95	
Cn1cc2c3cc(C(=O)N=[S@](=O)(CCCO)Cc4ccccn4)ccc3n(-c3ccc(C(F)(F)F)cc3)c2n1 (single isomer, unassigned) [Example C213]			> 3000		IC50 ([2]; SK-HEP-1 reporter assay, n.d. = value not detectable below threshold given in parentheses): > 300 nM; IC50 ([3]; 96 h): 1 to 100 nM
C[C@H](NC(=O)c1ccc2c(c1)c1cn(C)nc1n2-c1ccc(C(F)(F)F)cc1)c1cccc(N)n1 (single isomer, unassigned) [Example C214]	10 to 100	1 to 100	> 3000		
Cn1cc2c3cc(C(=O)N=[S@@](=O)(CCCO)Cc4ccncc4)ccc3n(-c3ccc(C(F)(F)F)cc3)c2n1 (single isomer, unassigned) [Example C231]		100 to 1000	> 3000	> 300	
Cn1cc2c3cc(C(=O)N=[S@](=O)(CCCO)Cc4ccncc4)ccc3n(-c3ccc(C(F)(F)F)cc3)c2n1 (single isomer, unassigned) [Example C236]		1 to 100	> 3000	> 95	
Cn1nc2c3cc(C(=O)N=[S@@](=O)(CCCO)Cc4ccccn4)ccc3n(-c3ccc(C(F)(F)F)cc3)c2n1 (single isomer, unassigned) [Example C237]		1 to 100	> 3000	> 3000	
Cn1cc2c3cc(C(=O)N[C@@H](CCO)c4ccccn4)ccc3n(-c3ccc(C(F)(F)F)cc3)c2n1 (single isomer, unassigned) [Example C240]	10 to 100	1 to 100	> 3000		
Cn1nc2c3cc(C(=O)N[C@H](CCO)c4ccccn4)ccc3n(-c3ccc(C(F)(F)F)cc3)c2n1 (single isomer, unassigned) [Example C241]	10 to 100	100 to 1000	> 3000		
Cn1nc2c3cc(C(=O)N[C@@H](CCO)c4ccccn4)ccc3n(-c3ccc(C(F)(F)F)cc3)c2n1 (single isomer, unassigned) [Example C242]	10 to 100	1 to 100	> 3000		
